Tests used:
Autotaxin (ATX) = Autotaxin (ATX) (Homo sapiens (Human), UniProt Q13822); assay: ATX bioactivity assay (Amplex Red / choline oxidase / HRP fluorescence, LPC 16:0 substrate); assay type: biochemical; conditions: 30 min room temperature
LPA18:2 in mouse plasma = assay: Inhibition of LPA in mouse plasma (plasma LPA18:2 assay, LC-MS/MS); assay type: biochemical, CD1 mice; conditions: fresh CD1 mouse plasma, LPA18:2, 37° C. for 120 min
Experimental: Effect Example 2. Inhibition of LPA in Mouse Plasma by Compounds
20 mM stock solutions of the compounds were prepared with DMSO and then diluted to 1 mM, which was subjected to a serial 3-fold dilution to yield 10 working solutions.
Collection of Fresh Mouse Plasma:
CD1 mice were euthanized by CO2 inhalation. Approximately 1 mL of whole blood was taken by cardiac puncture, with EDTA-K2 for anticoagulation. The blood was centrifuged at 3220 g for 10 min at 4° C. for plasma collection.
Reactions were performed in a 96-well plate, and the samples were tested in duplicate. 1 μL of each working solution was added to 100 μL of plasma, with the final concentrations of […]. 1 μL of DMSO was added to plasma to serve as blank. The samples were incubated in a water bath at 37° C. for 120 min, and 600 μL of 10 μM tolbutamide in methanol was added to terminate the reaction. Tolbutamide also served as an internal standard. After 5 min of vortex mixing, the samples were centrifuged at 3220 g for 45 min at 4° C. to precipitate the protein. 100 μL of the supernatant was transferred to a new plate, diluted with water based on LC-MS response and peak shapes, mixed well and analyzed by LC-MS/MS.
LPA18:2 was quantified using peak area ratio (LPA18:2/internal standard), requiring no standard curve. For test compounds of different concentrations, LPA data was represented by a percentage decrease of LPA: 100-[((LPA peak area ratio of compound)/(LPA peak area ratio of control))×100]. IC50 was calculated using Graphpad Prism 6.0 software.

CYP3A4 = CYP3A4 (Homo sapiens (Human), UniProt P08684); assay: Time-dependent inhibition of CYP3A4 (TDI assay, human liver microsomes); assay type: in vitro ADME; conditions: for CYP3A4 TDI % @ 10 μM: human liver microsomes, Midazolam substrate, 30 min with NADPH vs 0 min; for time-dependent inhibition on CYP3A4 (conclusion): conclusion drawn from Table 3, 10 μM
Sequence of CYP3A4 (P08684 whole entry): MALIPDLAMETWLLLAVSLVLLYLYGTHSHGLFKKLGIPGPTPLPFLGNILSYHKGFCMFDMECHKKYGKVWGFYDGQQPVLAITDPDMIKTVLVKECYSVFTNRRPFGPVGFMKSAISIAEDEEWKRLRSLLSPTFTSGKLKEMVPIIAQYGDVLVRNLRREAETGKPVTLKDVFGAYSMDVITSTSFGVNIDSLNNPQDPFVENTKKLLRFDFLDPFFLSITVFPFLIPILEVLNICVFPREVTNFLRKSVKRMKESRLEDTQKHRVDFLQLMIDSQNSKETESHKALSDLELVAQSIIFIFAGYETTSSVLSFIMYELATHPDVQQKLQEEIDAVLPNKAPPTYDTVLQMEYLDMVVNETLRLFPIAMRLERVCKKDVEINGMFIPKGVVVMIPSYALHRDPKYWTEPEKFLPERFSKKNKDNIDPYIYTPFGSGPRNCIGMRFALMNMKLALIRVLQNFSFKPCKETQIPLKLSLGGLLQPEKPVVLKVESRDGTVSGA
How it was run: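 Human liver microsomes (final 1 mg/mL) preincubated with test compound for 0 min without NADPH or 30 min with NADPH in 100 mM K-phosphate pH 7.4, 37 °C. Aliquot then diluted into midazolam substrate plus NADPH and incubated 15 min at 37 °C. Quenched with acetonitrile; metabolite read by LC-MS/MS.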

Question: Which results are given for CCc1nc2ncc(N3CCN(CC(=O)N4CC(O)C4)CC3)cn2c1N(C)c1nc(-c2ccc(F)cc2)c(C#N)s1 [Compound S-0021, 2-((2-ethyl-6-(4-(2-(3-hydroxyazetidin-1-yl)-2-oxoethyl)piperazin-1-yl)imidazo[1,2-a]pyrimidin-3-yl)(methyl)amino)-4-(4-fluorophenyl)thiazole-5-carbonitrile]?
Answer: IC50 (Autotaxin (ATX)): 102 nM; IC50 (LPA18:2 in mouse plasma): 790 nM; CYP3A4 TDI % @ 10 μM (CYP3A4): 1.67%; time-dependent inhibition on CYP3A4 (conclusion) (CYP3A4): no time-dependent inhibition on CYP3A4

Question: For CCn1nc2c(F)cc(N3CCN(CC(=O)N4CC(O)C4)CC3)cc2c1N(C)c1nc(-c2ccc(F)cc2)c(C#N)s1 [Compound S-0025, 2-((2-ethyl-7-fluoro-5-(4-(2-(3-hydroxyazetidin-1-yl)-2-oxoethyl)piperazin-1-yl)-2H-indazol-3-yl)(methyl)amino)-4-(4-fluorophenyl)thiazole-5-carbonitrile], which IC50 (Autotaxin (ATX)) is on record?
Answer: 88 nM

Question: And the IC50 (LPA18:2 in mouse plasma)?
Answer: 131 nM

Question: What about the “CYP3A4 TDI % @ 10 μM” value (CYP3A4) of the same compound?
Answer: 34.21%

Question: What about the “time-dependent inhibition on CYP3A4 (conclusion)” value (shortened to “time-dependent inhibition”) (CYP3A4) of the same compound?
Answer: weak time-dependent inhibition on CYP3A4

Question: What does the source list for CCc1nn2c(C)cc(N3CCN(CC(=O)N4CC(O)C4)CC3)nc2c1N(C)c1nc(-c2ccc(F)cc2)c(C#N)s1 [Compound S-0035, 2-((2-ethyl-5-(4-(2-(3-hydroxyazetidin-1-yl)-2-oxoethyl)piperazin-1-yl)-7-methylpyrazolo[1,5-a]pyrimidin-3-yl)(methyl)amino)-4-(4-fluorophenyl)thiazole-5-carbonitrile]?
Answer: IC50 (Autotaxin (ATX)): 62 nM; IC50 (LPA18:2 in mouse plasma): 300 nM; CYP3A4 TDI % @ 10 μM (CYP3A4): −4.84%; time-dependent inhibition on CYP3A4 (conclusion) (CYP3A4): no time-dependent inhibition on CYP3A4

Question: Which results are given for CCn1nc2ccc(N3CCN(CC(=O)N4CC(O)C4)CC3)nc2c1N(C)c1nc(-c2ccc(F)cc2)c(C#N)s1 [Compound S-0094, 2-((2-ethyl-5-(4-(2-(3-hydroxyazetidin-1-yl)-2-oxoethyl)piperazin-1-yl)-2H-pyrazolo[4,3-b]pyridin-3-yl)(methyl)amino)-4-(4-fluorophenyl) thiazole-5-carbonitrile]?
Answer: IC50 (Autotaxin (ATX)): 23 nM; IC50 (LPA18:2 in mouse plasma): 13 nM; CYP3A4 TDI % @ 10 μM (CYP3A4): 20.88%; time-dependent inhibition on CYP3A4 (conclusion) (CYP3A4): no time-dependent inhibition on CYP3A4

Question: Which IC50 (Autotaxin (ATX)) does the source give for CCn1nc2c(C)cc(N3CCN(CC(=O)N4CC(O)C4)CC3)nc2c1N(C)c1nc(-c2ccc(F)cc2)c(C#N)s1 [Compound S-0095, 2-((2-ethyl-5-(4-(2-(3-hydroxyazetidin-1-yl)-2-oxoethyl)piperazine-1-yl)-7-methyl-2H-pyrazolo[4,3-b]pyridin-3-yl)(methyl)amino)-4-(4-fluorophenyl)thiazole-5-carbonitrile] here?
Answer: 119 nM

Question: What about the IC50 (LPA18:2 in mouse plasma) of the same compound?
Answer: 309 nM

Question: And the “CYP3A4 TDI % @ 10 μM” value (CYP3A4)?
Answer: 2.91%

Question: And the “time-dependent inhibition” value (CYP3A4)?
Answer: no time-dependent inhibition on CYP3A4

Question: With CCc1oc2ccc(N3CCN(CC(=O)N4CC(O)C4)CC3)nc2c1N(C)c1nc(-c2ccc(F)cc2)c(C#N)s1 [Compound S-0097, 2-((2-ethyl-5-(4-(2-(3-hydroxyazetidin-1-yl)-2-oxoethyl)piperazin-1-yl)furo[3,2-b]pyridin-3-yl)(methyl)amino)-4-(4-fluorophenyl)thiazole-5-carbonitrile] as the compound, how does the IC50 (Autotaxin (ATX)) read?
Answer: 160 nM

Question: What about the IC50 (LPA18:2 in mouse plasma) of the same compound?
Answer: 160 nM

Question: And the “CYP3A4 TDI % @ 10 μM” value (CYP3A4)?
Answer: 12.51%

Question: And the “time-dependent inhibition” value (CYP3A4)?
Answer: no time-dependent inhibition on CYP3A4

Question: With CCc1[nH]c2ccc(N3CCN(CC(=O)N4CC(O)C4)CC3)nc2c1N(C)c1nc(-c2ccc(F)cc2)c(C#N)s1 [Compound S-0098, 2-((2-ethyl-5-(4-(2-(3-hydroxyazetidin-1-yl)-2-oxoethyl)piperazin-1-yl)-1H-pyrrolo[3,2-b]pyridin-3-yl)(methyl)amino)-4-(4-fluorophenyl) thiazole-5-carbonitrile] as the compound, how does the IC50 (Autotaxin (ATX)) read?
Answer: 31 nM

Question: What about the IC50 (LPA18:2 in mouse plasma) of the same compound?
Answer: 2 nM

Question: What about the “CYP3A4 TDI % @ 10 μM” value (CYP3A4) of the same compound?
Answer: 37.19%

Question: And the “time-dependent inhibition” value (CYP3A4)?
Answer: weak time-dependent inhibition on CYP3A4

Source: patent US11591342B2, “Heterocyclic compound, application thereof and pharmaceutical composition comprising same” (SUZHOU SINOVENT PHARMACEUTICALS CO., LTD., priority 2018, dated 2023)
